The target in assay [1] is T1, extracellular domain of EphA4 (Homo sapiens, UniProt P54764).
T1 construct: purchased R&D Systems
As to the kind of experiment: In vitro pull-down of recombinant EphA4-Fc with biotinylated Rhy on streptavidin beads. The format is binding. The following applies: western blot. The procedure:
For the pull-down analysis, Bio-Rhy was bound to streptavidin magnetic beads for 1 h, the beads was then incubated with recombinant EphA4-Fc or EphB2-Fc in the presence of 0.5% BSA for 1 h. After incubation, the beads were washed 4 times with DPBS and the presence of Eph in the complex was determined by western blot analysis.

Assay [2] deals with EphA4-dependent growth cone collapse in hippocampal neurons. The assay can be described thus: EphA4-dependent (ephrin-A1-stimulated) growth cone collapse assay. To be noted: cultured hippocampal neurons. The format is cell-based, rat. As to the method: Ephrin-A1-Fc was pre-clustered with goat anti-human Fc antibody (1:4.5)^24 and incubated at room temperature for 60 min before use. The growth cone collapse assay was performed in hippocampal neurons with ephrin-A1 0.1 μg/mL as described previously^61.
For EphA4 clustering, neurons were stained with anti-EphA4 and anti-Tau-1 antibodies. For the growth cone collapse assay, neurons were stained with Alexa Fluor 555-conjugated phalloidin (Molecular Probes) for filamentous actin and anti-Tau-1 antibody for axons. Collapsed growth cones were scored in a double-blinded manner. The experiments were repeated at least 3 times, and >50 neurons were analyzed for each experiment. Data are presented as mean±SEM.
To screen for small molecule EphA4 inhibitors, the inventors performed a molecular docking analysis using a small molecule library. […] Their ability in inhibiting EphA4 inhibiting the EphA4-dependent growth cone collapse using cultured hippocampal neurons was performed.

The subject of assay [3] is Aβ-induced reduction of neurotransmission in hippocampal neurons. The assay can be described thus: mEPSC recording in Aβ-treated cultured hippocampal neurons. In kind it is cell-based, rat. The procedure: Primary cortical and hippocampal neurons were prepared from embryonic day 18-19 rat embryos as described previously^24. Briefly, cortical neurons (6×10^6 per plate) were plated on 100-mm culture dishes coated with poly-D-lysine (12.5 μg/mL; Sigma). Rat hippocampal neurons were seeded on 18-mm coverslips coated with poly-D-lysine (50 μg/mL) at a density of 0.5×10^5/18-mm coverslip for immunocytochemical analysis, 0.1×10^5/18-mm coverslip for growth cone collapse assay, or 1×10^5 or 1.5×10^5/18-mm coverslip for mEPSC recording. Neurons were fed Neurobasal medium (Invitrogen) supplemented with 2% B27 (Invitrogen). Acute brain slices were prepared from P15-P17 Sprague-Dawley rats. Briefly, the rats were rapidly decapitated, and their brains were immersed in ice-cold artificial cerebrospinal fluid (ACSF). The hippocampus was dissected, and 300-μm-thick slices were prepared using a vibratome (Lieca). The slices were then transferred into an incubating chamber containing circulating ACSF equilibrated with 95% O2+5% CO2 and held at room temperature for at least 2 h for recovery prior to experiments^65.
For miniature EPSC recordings, hippocampal neurons at ˜25-28 DIV were co-treated with or without 500 nM Aβ together with the testing reagents for 24 h. Whole-cell patch-clamp recordings were made at room temperature with external solution containing (in mM) 110 NaCl, 5 KCl, 2 CaCl2, 0.8 MgCl2, 10 HEPES, and 10 D-glucose (pH 7.4) as well as an internal solution containing (in mM) 135 CsCl2, 10 HEPES, 2 MgCl2, 4 NaATP, 0.4 NaGTP, and 0.5 EGTA (pH 7.2)^24,27. Picrotoxin ([…]) was included in the external solution to block GABAergic IPSCs along with 0.5 μM TTX to prevent action potential-evoked EPSCs. For miniature EPSC recordings, cells were held at −70 mV. The pipette resistances for these experiments were typically 3-5 MΩ, while series resistances were 15-20 MΩ. The minis from each cell was recorded for 1 min in each condition. The measurement of mEPSC was according to that described in Mini Analysis Program for measuring AMPA receptor EPSCs (Synaptosoft Inc.). Only recording epochs in which series and input resistances varied <10% were analyzed. Data are presented as the mean±SEM of at least 3 experiments.

For assay [4], the system named is Tg2576 mutant mice. As to the kind of experiment: HFS-induced hippocampal LTP in WT and Tg2576 mice after oral treatment. In kind it is in vivo, mouse. From the text: APP/PS1 double-transgenic mice were obtained from Jackson Laboratory (B6C3-Tg[APPswe, PSEN1dE9]85Dbo/J)^66. These mice were generated by incorporating a human/murine APP construct bearing the Swedish double mutation and the exon-9-deleted PSEN1 mutation (APPswe+PSEN1/dE9). APP transgenic mice (Tg2576) expressing a double mutant of human AβPP (Lys^670→Asn^670, Met^671→Leu^671) were also used^31. Both sexes were used for experiments, and all mice used in this study were produced by the Animal Care Facility of The Hong Kong University of Science and Technology. The genotype was confirmed by polymerase chain reaction analysis of tail biopsies. Four to five mice of the same sex were housed in a cage with food and water ad libitum with a 12-hour light/dark cycle.
To investigate the effect of blocking EphA4 signaling by KYL peptide in AD mice, 4-5-month-old AD transgenic mice were implanted with Alzet mini-osmotic pumps, model 1004, pumping its contents at 0.11 μL/h for 28 days. Pumps were loaded with either 0.23 μg/μL KYL peptide (17 μg) or vehicle solvent in artificial cerebrospinal fluid (CSF). The mini-osmotic pumps were adjusted intracerebroventricularly in the right hemisphere. […]
For LTP recordings, mouse brains were immediately dissected after sacrifice and soaked in ice-cold 95% O2/5% CO2 (aCSF)^58. […] For treatment with EphA4 inhibitors, the slices were pretreated with peptides or chemicals for 1 h before application of Aβ. fEPSPs were recorded using a MED64 multichannel recording system, and the data were collected from the dendritic layer of area CA1 at a sampling rate of 10 kHz. For each slice, the baseline stimulus intensity was set at the level that elicited ˜50% of the maximum fEPSP response determined according to the input-output curve. […] The magnitude of LTP was quantified as a percentage change in the fEPSP slope (10%-90%) taken during the 60-min interval after LTP induction.

The test system of assay [5] is NMDA receptor. To be noted: subsequent study; cited from earlier work.

“Also recorded” adds a separate entry of the source.

T1 sequence (P54764 20-547 limits assumed): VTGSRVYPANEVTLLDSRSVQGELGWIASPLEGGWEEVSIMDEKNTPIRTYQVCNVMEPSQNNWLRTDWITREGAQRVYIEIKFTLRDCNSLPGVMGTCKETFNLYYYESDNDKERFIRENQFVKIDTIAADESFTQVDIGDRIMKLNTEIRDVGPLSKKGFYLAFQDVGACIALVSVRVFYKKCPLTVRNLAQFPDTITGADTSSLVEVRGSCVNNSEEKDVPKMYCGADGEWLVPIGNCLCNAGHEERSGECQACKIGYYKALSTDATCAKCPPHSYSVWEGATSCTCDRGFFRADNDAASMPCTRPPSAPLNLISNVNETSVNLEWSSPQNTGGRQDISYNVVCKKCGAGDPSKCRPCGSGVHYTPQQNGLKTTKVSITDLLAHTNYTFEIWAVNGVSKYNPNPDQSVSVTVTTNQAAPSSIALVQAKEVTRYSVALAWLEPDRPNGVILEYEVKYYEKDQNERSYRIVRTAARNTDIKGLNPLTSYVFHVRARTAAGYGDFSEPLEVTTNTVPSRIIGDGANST

As to `CC[C@H]1CN2CC[C@]3(C(=O)Nc4ccccc43)[C@@H]2C[C@@H]1/C(=C\OC)C(=O)OC` [Rhy, methyl (7β,16E,20α)-16-(methoxymethylene)-2-oxocorynoxan-17-oate], the “binding to the extracellular domain of EphA4 (pull-down, words)” value in assay [1] is “binds the extracellular domain of EphA4”. In addition, the “ephrin-A1-stimulated growth cone collapse” value in assay [2] was “reduced; also recorded: inhibited ephrin-A1-stimulated growth cone collapse”. The mEPSC inter-event interval in assay [3] (Rhy 10 μM + Aβ, Aβ alone 897.4±43.4 ms) came to 420.6 ± 9.6 ms; in assay [3] (Rhy 10 μM alone, control 312.9±7.8 ms) it was 512.2 ± 13.6 ms. Further, the “mean fEPSP slope, last 10 min after LTP induction” value in assay [4] (Tg2576 mice, Rhy oral 20 mg·kg−1·day−1 for 3 weeks, Tg Con 119.0±3.7%) is given as 161.9±2.9%; in assay [4] (Tg2576 mice, Rhy oral 50 mg·kg−1·day−1 for 3 weeks, Tg Con 119.0±3.7%), 159.7±17.9%; in assay [4] (WT mice, Rhy oral 20 mg·kg−1·day−1 for 3 weeks, WT Con 170.1±9.7%), 167.3±5.2%. Further, the “binding to NMDA receptor” value in assay [5] is “neither binds to NMDA receptor”.

(Values after patent US9629830B2, “EphA4 inhibitors as neuroprotective agents” (The Hong Kong University of Science and Technology, priority 2013, dated 2017).)
